Assay results from patent US8404265B2, “Contact lenses for extended release of bioactive agents containing diffusion attenuators” (University of Florida Research Foundation, Inc., priority 2008, dated 2013).

Tests used:
Type in all cases: physicochemical
Solubility of DX = assay: Solubility of DX
Protocol: For various drug loading methods, the mass of drug released at various time increments was divided by the total drug released at long time and plotted as a function of time. […] A DX-ethanol solution of equivalent concentration as the DX-PBS, 0.08 mg/ml as that of DX-PBS solution was used to allow direct comparison of the two loading modes, although a saturated DX in ethanol is about 1 mg/ml. […] For these lenses, there is not much difference in the total release amount of DX from the lenses soaked in DX-PBS solution for two different soaking times, but slower DX release is observed from lenses that were soaked for 7 days than that for 24 hours. […] For total release amount of DX, PureVision™ and ACUVUE® OASYS™ lenses release relatively smaller amounts (about 28 μg and 35 μg, respectively) compared to the other three lenses (about 38-41 μg). There is no correlation between amount of drugs released and the water content, which is likely because the hydrophobic drugs are expected to partition in the silicone rich phases, and so the partition coefficients in the gels will be mainly influenced by the silicone composition of the lenses. All the lenses soaked in DX-ethanol solution release substantially low amount of DX (2-8 μg). […]

[1] = Diffusivity ratio from slope of % release versus square root of time; details: pure lenses
Description: FIG. 31 plots % drugs release by Vitamin E loaded lenses as a function of the square root of time, for DX, timolol, fluzonazole and DXP. The lines of FIG. 31 are best fit straight lines over short time release data having R^2 larger than 0.98. […] The straight lines can be expressed by the equation:
[formula] where Mt is the mass of drug released at time t, M∞ the mass of drug release as time approaches infinity and for perfect sink condition M∞=M0 (initial drug loading). Therefore, from the slope of the straight line in FIG. 31, diffusivities of drug in the Vitamin E loaded lens can be determined if the mean lens thickness is known. The slope for DX, timolol, fluzonazole and DXP release is plotted versus Vitamin E loading in FIG. 32A-D. The slope decreases as Vitamin E loading increases for all lenses for all drugs release, which means (√{square root over (D)}/h) decreases. […] The h also increases as Vitamin E loading increases and lens expands symmetrically for all expansion axes (isotropic expansion) as described above. The increase of h might be 6.8% for hydrated O2OPTIX lens with 34% Vitamin E loading from FIG. 5B. Consequently, √{square root over (D)} is 39.5% of that of pure lens, i.e., D of DX in the 34% Vitamin E loaded O2OPTIX lens is 15% of that of the vitamin free (pure) lens. […]

[2] = DX uptake, release and partition coefficient, Vitamin E loaded lenses; details: release from Vitamin E loaded lenses
Protocol: Drug containing Vitamin E loaded lenses were prepared by directly adding drug to a Vitamin E-ethanol solution before soaking the pure lens in the solution, or by soaking a Vitamin E loaded lens in a drug-PBS solution. Drug containing Vitamin E-ethanol solutions were prepared by dissolving the drug in 3 ml of a Vitamin E-ethanol solution and then pure lens were soaked in this drug/Vitamin E-ethanol for 24 hours. The drug containing Vitamin E-ethanol lenses were taken from the solution blotted with wipes and dried overnight before subsequent release experiments.
For PureVision™ lens loaded with Vitamin E, only three different Vitamin E loadings were examined since the effect of Vitamin E loading on drug transport is minimal compared to other lenses. The insets in FIG. 21 show plots for drug release for the initial hours. Vitamin E was loaded in the lens, the lens were dried and DX was loaded in the Vitamin E loaded lens by soaking the lens in the DX-PBS solutions. […] DX loading time is relatively long for ACUVUE® OASYS™ lenses and relatively short for PureVision™ lenses relative to that of NIGHT&DAY™ and O2OPTIX lenses for similar Vitamin E loadings regardless of the level of Vitamin E loading.
For loading, an experimentally determined partition coefficient of drug in the Vitamin E loaded lens (K) is defined as: […]

Compound: C[C@@H]1C[C@H]2[C@@H]3CCC4=CC(=O)C=C[C@]4(C)[C@@]3(F)[C@@H](O)C[C@]2(C)[C@@]1(O)C(=O)CO [DX, dexamethasone]
- concentration of nearly saturated DX-PBS solution (Solubility of DX; PBS, room temperature): ~80 µg/mL
- saturated DX in ethanol (Solubility of DX; ethanol): about 1 mg/ml

Compound: CC(C)(C)NC[C@H](O)COc1nsnc1N1CCOCC1 [timolol]
- D0 of timolol relative to D0 of DX [1]: about 3 factor

Compound: Vitamin E
- Vitamin E in the release medium, PBS [2]: not detected
